Measured values published in ChEMBL document CHEMBL1128962, “Serotoninergic 5-HT3 and 5-HT4 receptor activities of dihydrobenzofuran carboxylic acid derivatives” (Bioorg Med Chem Lett, 1996).

Tests used:
[1] = molecular target: Serotonin 3 (5-HT3) receptor (Homo sapiens) (UniProt P46098+A5X5Y0+O95264+Q70Z44+Q8WXA8); experiment: In vitro 5-hydroxytryptamine 3 receptor activity in guinea pig ileum; type: tissue-based; settings: Cavia porcellus, target entry is the homologue from another species
[2] = molecular target: T1, 5-hydroxytryptamine receptor 4 (Rattus norvegicus, UniProt Q62758); experiment: In vitro relaxation of carbachol pre-contracted rat oesophageal TMM.; type: functional
T1 sequence (Q62758 whole entry): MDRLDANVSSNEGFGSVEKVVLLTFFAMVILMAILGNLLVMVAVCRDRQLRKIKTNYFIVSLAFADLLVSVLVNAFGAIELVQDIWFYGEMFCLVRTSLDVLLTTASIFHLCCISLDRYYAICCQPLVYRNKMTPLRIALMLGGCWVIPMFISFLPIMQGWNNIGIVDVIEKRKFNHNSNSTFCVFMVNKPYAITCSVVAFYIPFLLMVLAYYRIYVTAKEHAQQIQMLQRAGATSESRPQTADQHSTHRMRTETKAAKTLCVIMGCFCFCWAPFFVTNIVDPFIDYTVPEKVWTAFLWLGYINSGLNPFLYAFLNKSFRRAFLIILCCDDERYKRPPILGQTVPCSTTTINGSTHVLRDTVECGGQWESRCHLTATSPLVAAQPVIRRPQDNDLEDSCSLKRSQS

[3] = molecular target: 5-hydroxytryptamine receptor 4 (Rattus norvegicus) (UniProt Q62758); experiment: In vitro 5-hydroxytryptamine 4 receptor activity by using carbachol-precontracted esophageal tunica muscularis mucosae.
5-hydroxytryptamine receptor 4 (Rattus norvegicus), sequence (Q62758 whole entry): as above

[4] = molecular target: T1, 5-hydroxytryptamine receptor 4; experiment: Binding affinity at 5-hydroxytryptamine 4 receptor in rat striatum by [3H]GR-113808 displacement.; type: tissue-based
[5] = molecular target: T2, Serotonin 3 (5-HT3) receptor (Rattus norvegicus, UniProt P35563+Q9JJ16); experiment: Binding affinity at 5-hydroxytryptamine 3 receptor in rat entorhinal cortex by [3H]BRL-43694 displacement.; type: tissue-based
T2 sequence (P35563 whole entry): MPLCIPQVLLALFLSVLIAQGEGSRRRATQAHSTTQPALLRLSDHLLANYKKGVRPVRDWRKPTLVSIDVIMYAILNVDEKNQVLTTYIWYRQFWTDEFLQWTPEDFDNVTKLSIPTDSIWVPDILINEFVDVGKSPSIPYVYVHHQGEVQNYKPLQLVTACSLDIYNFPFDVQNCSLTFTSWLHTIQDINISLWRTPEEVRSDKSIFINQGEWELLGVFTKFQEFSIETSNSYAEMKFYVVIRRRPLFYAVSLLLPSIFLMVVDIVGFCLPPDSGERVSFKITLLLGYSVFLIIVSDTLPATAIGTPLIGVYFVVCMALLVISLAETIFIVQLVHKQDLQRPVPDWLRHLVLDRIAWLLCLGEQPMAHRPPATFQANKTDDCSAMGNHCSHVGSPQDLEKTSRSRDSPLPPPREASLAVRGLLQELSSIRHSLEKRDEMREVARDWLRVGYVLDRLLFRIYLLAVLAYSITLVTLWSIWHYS
T2 sequence (Q9JJ16 whole entry): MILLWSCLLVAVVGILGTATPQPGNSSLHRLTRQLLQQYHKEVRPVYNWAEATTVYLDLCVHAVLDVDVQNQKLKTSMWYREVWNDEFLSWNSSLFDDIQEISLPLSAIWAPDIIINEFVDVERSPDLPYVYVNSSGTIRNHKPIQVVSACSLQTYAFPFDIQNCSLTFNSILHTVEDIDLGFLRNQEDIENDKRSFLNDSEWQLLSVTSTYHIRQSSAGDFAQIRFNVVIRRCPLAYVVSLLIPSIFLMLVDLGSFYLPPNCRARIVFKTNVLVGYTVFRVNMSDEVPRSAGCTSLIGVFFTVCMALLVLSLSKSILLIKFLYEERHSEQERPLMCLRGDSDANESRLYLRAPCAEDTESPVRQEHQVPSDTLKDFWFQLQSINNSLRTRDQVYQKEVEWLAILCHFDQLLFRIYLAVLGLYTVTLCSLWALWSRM

[6] = molecular target: 5-hydroxytryptamine receptor 4 (Rattus norvegicus) (UniProt Q62758); experiment: In vitro 5-hydroxytryptamine 4 receptor activity by using carbachol-precontracted esophageal tunica muscularis mucosae; No activity up to 104M concentration

SMILES | Kb [1] | EC50 [2] | Kb [3] | Ki [4] | Ki [5] | Kb [6]
O=C(N[C@@H]1CN2CCC1CC2)c1cccc2c1OCC2 | 40.7 nM | > 10000 nM | > 1000 nM | > 1000 nM | 1.4 nM | 
Nc1c(Cl)cc(C(=O)NCCN2CCCCC2)c2c1CCO2 |  | 35.4 nM |  | 41 nM | 380 nM | 
Nc1c(Cl)cc(C(=O)OCCCN2CCCCC2)c2c1CCO2 |  | 7.43 nM |  | 4.5 nM | 1180 nM | 
Nc1ccc(C(=O)N[C@H]2CN3CCC2CC3)c2c1CCO2 |  | > 1000 nM | > 1000 nM | > 1000 nM | 20 nM | 
Nc1ccc(C(=O)N[C@@H]2CN3CCC2CC3)c2c1CCO2 | 44.6 nM | > 10000 nM | > 100 nM | > 1000 nM | 1 nM | 
CCCCN1CCC(COC(=O)c2cc(Cl)c(N)c3c2OCC3)CC1 |  | 1.85 nM |  | 0.13 nM | 250 nM | 
Nc1c(Cl)cc(C(=O)OCCN2CCCCC2)c2c1CCO2 |  | 2.02 nM |  | 0.94 nM | 110 nM | 
CCCC[N+]12CCC(CC1)[C@H](NC(=O)c1cc(Cl)c(N)c3c1OCC3)C2 |  | 8.5 nM |  | 1.9 nM | 73 nM | 
CCCC[N+]12CCC(CC1)[C@@H](NC(=O)c1cc(Cl)c(N)c3c1OCC3)C2 |  | 1360 nM |  | 420 nM | 10 nM | 
COc1cc(N)c(Cl)cc1C(=O)N[C@@H]1CN2CCC1CC2 |  | 55.9 nM |  | 131 nM | 0.11 nM | 
CCCCN1CCC(CNC(=O)c2cc(Cl)c(N)c3c2OCC3)CC1 |  | 4.49 nM |  | 1.9 nM | 57 nM | 
CCN(CC)CCNC(=O)c1cc(Cl)c(N)cc1OC [METOCLOPRAMIDE] |  |  |  |  | 490 nM | 
Nc1c(Cl)cc(C(=O)N[C@@H]2CN3CCC2CC3)c2c1CCO2 | 3.8 nM | 18.6 nM |  | 17 nM | 0.1 nM | 18.6 nM
Nc1c(Cl)cc(C(=O)N[C@H]2CN3CCC2CC3)c2c1CCO2 | 33.9 nM | 195 nM |  | 115 nM | 1 nM | 
O=C(N[C@H]1CN2CCC1CC2)c1cc(Cl)cc2c1OCC2 | 38 nM | > 1000 nM | > 1000 nM | 280 nM | 1 nM | 
O=C(N[C@@H]1CN2CCC1CC2)c1cc(Cl)cc2c1OCC2 | 21.8 nM | > 10000 nM | > 100 nM | 170 nM | 1 nM | 
Nc1c(Cl)cc(C(=O)NCCCN2CCCCC2)c2c1CCO2 |  | 19.3 nM |  | 9.6 nM | > 10000 nM | 
O=C(N[C@H]1CN2CCC1CC2)c1cccc2c1OCC2 |  | > 1000 nM | > 1000 nM | > 10000 nM | 14 nM | 
